Experimental data taken from publication PMC5811830 (Journal of Clinical Pharmacology, 2017).
Like-named read-outs stand apart in the source and are kept apart here.

Assays:
[1] = type: in vivo, human; settings: for AUC0-264 geometric least-squares mean ratio (90%CI) (test/reference) / Cmax geometric least-squares mean ratio (90%CI) (test/reference): with vs without clarithromycin
CYP3A4 = settings: higher than clinical concentrations; cited from earlier work
[2] = type: in vivo, human; settings: for Cmax geometric least-squares mean ratio (90%CI) (test/reference): with vs without ketoconazole
CYP2B6 = settings: higher than clinical concentrations; cited from earlier work
CYP1A2 = settings: higher than clinical concentrations; cited from earlier work
CYP2C19 = settings: higher than clinical concentrations; cited from earlier work
[3] = humans; cited from earlier work
[4] = Treatment-emergent adverse events and on-study deaths in the DDI study arms; type: in vivo, human
[5] = clinically relevant exposures; cited from earlier work
CYP2C9 = settings: higher than clinical concentrations; cited from earlier work
P‐glycoprotein (P‐gp) = settings: in vitro data; cited from earlier work
CYP2D6 = settings: higher than clinical concentrations; cited from earlier work
Period effect analysis = type: in vivo, human; settings: pooled ketoconazole DDI, food effect and relative bioavailability arms
CYP2C8 = settings: higher than clinical concentrations; cited from earlier work
[6] = type: in vivo, human; settings: for Reduction of Cmax in the presence of rifampin: ixazomib 4 mg oral, rifampin 600 mg once daily; for AUC0-last geometric least-squares mean ratio (90%CI) (test/reference) / Cmax geometric least-squares mean ratio (90%CI) (test/reference): with vs without rifampin
intestinal P‐gp = settings: multiple doses of rifampin, duodenal biopsies, Western blotting; cited from earlier work
[7] = cited from earlier work
[8] = Clarithromycin arm (N = 21), cycle 1 only
[9] = Rifampin arm (N = 38), test and reference groups
[10] = test condition: ixazomib 4 mg oral day 8 with rifampin 600 mg once daily, N = 16

SMILES: CC(C)C[C@H](NC(=O)CNC(=O)c1cc(Cl)ccc1Cl)B(O)O [ixazomib]
- Increase in AUC with the strong CYP3A inhibitors ketoconazole and clarithromycin ([1]; observed, ketoconazole and clarithromycin DDI studies): ≤ 11%
- AUC0-264 geometric least-squares mean ratio (90%CI) (test/reference) [1]: 1.11
- Cmax geometric least-squares mean ratio (90%CI) (test/reference) [1]: 0.96
- AUC0-264 geometric least-squares mean ratio (90%CI) (test/reference) ([1]; listed as Ixazomib): 1.11 (0.86‐1.43)
- Cmax geometric least-squares mean ratio (90%CI) (test/reference) ([1]; listed as Ixazomib): 0.96 (0.67‐1.36)
- Estimated relative contribution of 3A4 to metabolism (CYP3A4): 42%
- Geometric mean AUC0-264, h·ng/mL (%CV), not corrected for the period effect ([2]; test condition: ixazomib 2.5 mg oral, period 2 with ketoconazole): 1150 (46) h·ng/mL
- Cmax geometric least-squares mean ratio (90%CI) (test/reference) [2]: 1.01
- Cmax geometric least-squares mean ratio (90%CI) (test/reference) ([2]; listed as Ixazomib): 1.01 (0.78‐1.30)
- Estimated relative contribution of 2B6 to metabolism (CYP2B6): 16%
- Estimated relative contribution of 1A2 to metabolism (CYP1A2): 26%
- Estimated relative contribution of 2C19 to metabolism (CYP2C19): 5%
- Orally administered radiolabeled ixazomib recovered in urine [3]: 62%
- Urinary excretion representing the parent drug [3]: < 3.5%
- Any AE, n (%) [4, 8]: 16 (76) n (%)
- Any drug-related AE, n (%) [4, 8]: 4 (19) n (%)
- Any drug-related grade ≥3 AE, n (%) [4, 8]: 0 n (%)
- Any drug-related serious AE, n (%) [4, 8]: 0 n (%)
- Any grade ≥3 AE, n (%) [4, 8]: 2 (10) n (%)
- Any serious AE, n (%) [4, 8]: 2 (10) n (%)
- On-study deaths, n (%) [4, 8]: 0 n (%)
- AE leading to discontinuation, n (%) ([4]; Ketoconazole arm (N = 29)): 8 (28) n (%)
- Any AE, n (%) ([4]; Ketoconazole arm (N = 29)): 29 (100) n (%)
- Any drug-related AE, n (%) ([4]; Ketoconazole arm (N = 29)): 27 (93) n (%)
- Any drug-related grade ≥3 AE, n (%) ([4]; Ketoconazole arm (N = 29)): 10 (34) n (%)
- Any drug-related serious AE, n (%) ([4]; Ketoconazole arm (N = 29)): 3 (10) n (%)
- Any grade ≥3 AE, n (%) ([4]; Ketoconazole arm (N = 29)): 18 (62) n (%)
- Any serious AE, n (%) ([4]; Ketoconazole arm (N = 29)): 12 (41) n (%)
- On-study deaths, n (%) ([4]; Ketoconazole arm (N = 29)): 2 (7) n (%)
- AE leading to discontinuation, n (%) [4, 9]: 4 (11) n (%)
- Any AE, n (%) [4, 9]: 37 (97) n (%)
- Any drug-related AE, n (%) [4, 9]: 32 (84) n (%)
- Any drug-related grade ≥3 AE, n (%) [4, 9]: 7 (18) n (%)
- Any drug-related serious AE, n (%) [4, 9]: 2 (5) n (%)
- Any grade ≥3 AE, n (%) [4, 9]: 15 (39) n (%)
- Any serious AE, n (%) [4, 9]: 7 (18) n (%)
- On-study deaths, n (%) [4, 9]: 1 (3) n (%)
- AE leading to discontinuation, n (%) ([4]; Total (N = 88)): 13 (15) n (%)
- Any AE, n (%) ([4]; Total (N = 88)): 82 (93) n (%)
- Any drug-related AE, n (%) ([4]; Total (N = 88)): 63 (72) n (%)
- Any drug-related grade ≥3 AE, n (%) ([4]; Total (N = 88)): 17 (19) n (%)
- Any drug-related serious AE, n (%) ([4]; Total (N = 88)): 5 (6) n (%)
- Any grade ≥3 AE, n (%) ([4]; Total (N = 88)): 35 (40) n (%)
- Any serious AE, n (%) ([4]; Total (N = 88)): 21 (24) n (%)
- On-study deaths, n (%) ([4]; Total (N = 88)): 3 (3) n (%)
- Patients with a study drug-related AE ([4]; across the 3 DDI study arms (N = 88)): 72%
- Patients with study drug-related grade 3 AEs ([4]; across the 3 study arms, 17 patients): 19%
- Patients with grade ≥3 AEs ([4]; across the 3 study arms, 35 patients): 40%
- Study drug-related grade 3 AE: thrombocytopenia ([4]; across the 3 study arms, n = 2): 2%
- Study drug-related grade 3 AE: vomiting ([4]; across the 3 study arms, n = 2): 2%
- Study drug-related grade 3 AE: diarrhea ([4]; across the 3 study arms, n = 3): 3%
- Study drug-related grade 3 AE: nausea ([4]; across the 3 study arms, n = 3): 3%
- Study drug-related grade 3 AE: fatigue ([4]; across the 3 study arms, n = 9): 10%
- Study drug-related AE: weight loss ([4]; across the 3 study arms, n = 10): 11%
- Study drug-related AE: dehydration ([4]; across the 3 study arms, n = 12): 14%
- Study drug-related AE: asthenia ([4]; across the 3 study arms, n = 13): 15%
- Study drug-related AE: decreased appetite ([4]; across the 3 study arms, n = 15): 17%
- Effect on the QTc interval [5]: does not prolong the QTc interval
- Estimated relative contribution of 2C9 to metabolism (CYP2C9): < 1%
- P-gp substrate status (P‐glycoprotein (P‐gp)): low‐affinity substrate
- Estimated relative contribution of 2D6 to metabolism (CYP2D6): 5%
- Magnitude of the period effect (period 2 AUC vs period 1 AUC), pooled analysis (Period effect analysis): 1.91 fold
- Estimated relative contribution of 2C8 to metabolism (CYP2C8): 6%
- Reduction of Cmax in the presence of rifampin [6]: 54%
- Reduction of Cmax in the presence of rifampin ([6]; listed as Ixazomib): approximately 54%
- Geometric mean AUC0-last, h·ng/mL (%CV) [6, 10]: 232 (50) h·ng/mL
- Geometric mean Cmax, ng/mL (%CV) [6, 10]: 25.7 (50) ng/mL
- Median Tmax, h (range) [6, 10]: 1.45 (0.5‐4.12) h
- AUC0-last geometric least-squares mean ratio (90%CI) (test/reference) [6]: 0.26
- Cmax geometric least-squares mean ratio (90%CI) (test/reference) [6]: 0.46
- AUC0-last geometric least-squares mean ratio (90%CI) (test/reference) ([6]; listed as Ixazomib): 0.26 (0.18‐0.37)
- Cmax geometric least-squares mean ratio (90%CI) (test/reference) ([6]; listed as Ixazomib): 0.46 (0.29‐0.73)

SMILES: CO[C@H]1/C=C/O[C@@]2(C)Oc3c(C)c(O)c4c(O)c(c(/C=N/N5CCN(C)CC5)c(O)c4c3C2=O)NC(=O)/C(C)=C\C=C\[C@H](C)[C@H](O)[C@@H](C)[C@@H](O)[C@@H](C)[C@H](OC(C)=O)[C@@H]1C [rifampin]
- Assumed increase in intestinal P-gp activity (intestinal P‐gp): 4 fold

SMILES: COc1cc2nccc(Oc3ccc(NC(=O)Nc4cc(C)on4)c(Cl)c3)c2cc1OC [tivozanib]
- Effect of steady-state ketoconazole on tivozanib AUC ([7]; ketoconazole 400 mg/day): did not alter
- Decrease in tivozanib AUC with rifampin ([7]; rifampin 600 mg/day): 53%
